Several values for one entry are separate records, joined by “and”; a condition that tells them apart may be missing. Equal values may be shown once. Read-outs that look alike come from different tables or passages of the source.
Experiments:
[1] = system: SARS-CoV-2 TKYS02037/ο BA.2; assay: microbe, parasite or virus in culture; type: cell-based
[2] = Pharmacokinetic study in PXB-mice (human liver-chimeric)
SARS-CoV-2^WK-521 = assay: microbe, parasite or virus in culture; type: cell-based; set-up: EC95, individual assays / EC95, Average: unit: µM

CC(C)(C)[C@H](NC(=O)C(F)(F)F)C(=O)N1C[C@H]2[C@@H]([C@H]1C(=O)N[C@H](C#N)C[C@@H]1CCNC1=O)C2(C)C [Nirmatrelvir, reference compound]
EC50 ([1]; Severe acute respiratory syndrome coronavirus 2, Vero C1008, read-out: EC50 against TKYVS2037/ο BA.2): 1.24 ± 0.125 µM | EC50 ([1]; Severe acute respiratory syndrome coronavirus 2, Vero C1008, read-out: EC50 ο BA2, individual assays): 1.23 µM | EC50 ([1]; read-out: EC50 ο BA2, individual assays): 1.12 µM and 1.37 µM | concentration at 10 min ([2]; PXB (human liver-chimeric), mouse, plasma, po, 10 mg/kg, plasma concentration, 10 min, individual animals (3 per time point), LC/MS/MS): 1.6 µg/mL | concentration at 240 min ([2]; PXB (human liver-chimeric), mouse, plasma, po, 10 mg/kg, plasma concentration, 240 min, individual animals (3 per time point), LC/MS/MS): 0.0473 µg/mL | concentration at 1440 min ([2]; PXB (human liver-chimeric), mouse, plasma, po, 10 mg/kg, plasma concentration, 1440 min, individual animals (3 per time point), LC/MS/MS): 0.00063 µg/mL | Plasma concentration ([2]; PXB-mice, i.v. 10 mg/kg, 10 min, individual mice, 10 mg/kg): 5525.9 ng/mL and 4420.7 ng/mL | Plasma concentration ([2]; PXB-mice, i.v. 10 mg/kg, 0.17 hr, individual mice, 10 mg/kg): 5530 ng/mL and 4420 ng/mL | Plasma concentration ([2]; PXB-mice, i.v. 10 mg/kg, 60 min, individual mice, 10 mg/kg): 305.4 ng/mL and 496.6 ng/mL | Plasma concentration ([2]; PXB-mice, i.v. 10 mg/kg, 1 hr, individual mice, 10 mg/kg): 310 ng/mL and 500 ng/mL | Plasma concentration ([2]; PXB-mice, i.v. 10 mg/kg, 240 min, individual mice, 10 mg/kg): 10 ng/mL and 10.6 ng/mL and 46.3 ng/mL | Plasma concentration ([2]; PXB-mice, i.v. 10 mg/kg, 4 hr, individual mice, 10 mg/kg): 0.01 µg/ml (2×) and 0.05 µg/ml | Plasma concentration ([2]; PXB-mice, i.v. 10 mg/kg, 480 min, individual mice, 10 mg/kg): 1.3 ng/mL and 2.2 ng/mL | Plasma concentration ([2]; PXB-mice, i.v. 10 mg/kg, 8 hr, individual mice): 0 ng/mL | Plasma concentration ([2]; PXB-mice, i.v. 10 mg/kg, 1440 min, individual mice, 10 mg/kg): 0.2 ng/ml (2×) and 0.9 ng/ml | Plasma concentration ([2]; PXB-mice, i.v. 10 mg/kg, 24 hr, individual mice): 0 ng/mL | Plasma concentration ([2]; PXB-mice, p.o. 10 mg/kg, 10 min, individual mice, 10 mg/kg): 889.5 ng/mL and 980.6 ng/mL | Plasma concentration ([2]; PXB-mice, p.o. 10 mg/kg, 0.17 hr, individual mice, 10 mg/kg): 890 ng/mL and 980 ng/mL | Plasma concentration ([2]; PXB-mice, p.o. 10 mg/kg, 60 min, individual mice, 10 mg/kg): 653.1 ng/mL and 318.8 ng/mL and 407 ng/mL | Plasma concentration ([2]; PXB-mice, p.o. 10 mg/kg, 1 hr, individual mice, 10 mg/kg): 650 ng/mL and 320 ng/mL and 410 ng/mL | Plasma concentration ([2]; PXB-mice, p.o. 10 mg/kg, 240 min, individual mice, 10 mg/kg): 34.6 ng/mL and 30.7 ng/mL | Plasma concentration ([2]; PXB-mice, p.o. 10 mg/kg, 4 hr, individual mice, 10 mg/kg): 30 ng/mL | Plasma concentration ([2]; PXB-mice, p.o. 10 mg/kg, 480 min, individual mice, 10 mg/kg): 4.4 ng/mL and 7.4 ng/mL and 18.7 ng/mL | Plasma concentration ([2]; PXB-mice, p.o. 10 mg/kg, 8 hr, individual mice, 10 mg/kg): 0 ng/mL and 10 ng/mL and 20 ng/mL | Plasma concentration ([2]; PXB-mice, p.o. 10 mg/kg, 1440 min, individual mice, 10 mg/kg): 0.6 ng/mL and 0.5 ng/mL | Plasma concentration ([2]; PXB-mice, p.o. 10 mg/kg, 24 hr, individual mice): 0 ng/mL | Oral F ([2]; male PXB-mouse 10 mg/kg i.v. and p.o., dose-normalized AUC ratio): 56¶ % | concentration at 10 min ([2]; male, PXB (human liver-chimeric), mouse, plasma, iv, 10 mg/kg, Plasma concentration, PXB-mice, i.v. 10 mg/kg, 10 min, individual mice): 4.25 µg/mL | concentration at 0.17 hr ([2]; male, PXB (human liver-chimeric), mouse, plasma, iv, 10 mg/kg, Plasma concentration, PXB-mice, i.v. 10 mg/kg, 0.17 hr, individual mice): 4.25 µg/mL | concentration at 60 min ([2]; male, PXB (human liver-chimeric), mouse, plasma, iv, 10 mg/kg, Plasma concentration, PXB-mice, i.v. 10 mg/kg, 60 min, individual mice): 0.344 µg/mL | concentration at 1 hr ([2]; male, PXB (human liver-chimeric), mouse, plasma, iv, 10 mg/kg, Plasma concentration, PXB-mice, i.v. 10 mg/kg, 1 hr, individual mice): 0.34 µg/mL | concentration at 480 min ([2]; male, PXB (human liver-chimeric), mouse, plasma, iv, 10 mg/kg, Plasma concentration, PXB-mice, i.v. 10 mg/kg, 480 min, individual mice): 0.0022 µg/mL | concentration at 8 hr ([2]; male, PXB (human liver-chimeric), mouse, plasma, iv, 10 mg/kg, Plasma concentration, PXB-mice, i.v. 10 mg/kg, 8 hr, individual mice): 0 µg/mL | concentration at 24 hr ([2]; male, PXB (human liver-chimeric), mouse, plasma, iv, 10 mg/kg, Plasma concentration, PXB-mice, i.v. 10 mg/kg, 24 hr, individual mice): 0 µg/mL | Cmax ([2]; male, PXB (human liver-chimeric), mouse, plasma, po, 10 mg/kg): 1.16 µg/mL | concentration at 10 min ([2]; male, PXB (human liver-chimeric), mouse, plasma, po, 10 mg/kg, Plasma concentration, PXB-mice, p.o. 10 mg/kg, 10 min, individual mice): 1.6 µg/mL | concentration at 0.17 hr ([2]; male, PXB (human liver-chimeric), mouse, plasma, po, 10 mg/kg, Plasma concentration, PXB-mice, p.o. 10 mg/kg, 0.17 hr, individual mice): 1.6 µg/mL | concentration at 240 min ([2]; male, PXB (human liver-chimeric), mouse, plasma, po, 10 mg/kg, Plasma concentration, PXB-mice, p.o. 10 mg/kg, 240 min, individual mice): 0.0472 µg/mL | concentration at 4 hr ([2]; male, PXB (human liver-chimeric), mouse, plasma, po, 10 mg/kg, Plasma concentration, PXB-mice, p.o. 10 mg/kg, 4 hr, individual mice): 0.05 µg/mL | concentration at 1440 min ([2]; male, PXB (human liver-chimeric), mouse, plasma, po, 10 mg/kg, Plasma concentration, PXB-mice, p.o. 10 mg/kg, 1440 min, individual mice): 0.0006 µg/mL | concentration at 24 hr ([2]; male, PXB (human liver-chimeric), mouse, plasma, po, 10 mg/kg, Plasma concentration, PXB-mice, p.o. 10 mg/kg, 24 hr, individual mice): 0 µg/mL | Plasma concentration ([2]; p.o., 10 min, individual animals (3 per time point), LC/MS/MS): 889.46 ng/mL and 980.64 ng/mL | Plasma concentration ([2]; p.o., 60 min, individual animals (3 per time point), LC/MS/MS): 653.07 ng/mL and 318.79 ng/mL and 406.97 ng/mL | Plasma concentration ([2]; p.o., 240 min, individual animals (3 per time point), LC/MS/MS): 34.58 ng/mL and 30.74 ng/mL | Plasma concentration ([2]; p.o., 480 min, individual animals (3 per time point), LC/MS/MS): 4.42 ng/mL and 7.44 ng/mL and 18.67 ng/mL | Plasma concentration ([2]; p.o., 1440 min, individual animals (3 per time point), LC/MS/MS): 0.61 ng/mL and 0.54 ng/mL | EC95, Average (SARS-CoV-2^WK-521): 7.815 | EC95, individual assays (SARS-CoV-2^WK-521): 8.01 and 9.89 and 6.31 and 7.05

Reference: PMC9958325 (Nature Communications, 2023)
